Measured values: patent US20260258039A1, “AROMATIC COMPOUND, METHOD FOR PREPARING SAME, AND USE THEREOF IN PREPARATION OF ESTROGEN RECEPTOR DEGRADER” (Hinova Pharmaceuticals Inc., priority 2022, published 2026)
Like-named read-outs stand apart in the source and are kept apart here.

Key:
Assay type in all cases: cell-based
ER [1] = biological target: T1, ER (Homo sapiens, UniProt P03372); assay: Degradation activities on ER (Western blotting) in T47D breast cancer cells; details: 24 h, Western blot
T1 construct: T47D breast cancer cells were subcultured in cell culture medium; endogenous in cells; host or cells: T47D breast cancer cells
T1 sequence (P03372 1-595): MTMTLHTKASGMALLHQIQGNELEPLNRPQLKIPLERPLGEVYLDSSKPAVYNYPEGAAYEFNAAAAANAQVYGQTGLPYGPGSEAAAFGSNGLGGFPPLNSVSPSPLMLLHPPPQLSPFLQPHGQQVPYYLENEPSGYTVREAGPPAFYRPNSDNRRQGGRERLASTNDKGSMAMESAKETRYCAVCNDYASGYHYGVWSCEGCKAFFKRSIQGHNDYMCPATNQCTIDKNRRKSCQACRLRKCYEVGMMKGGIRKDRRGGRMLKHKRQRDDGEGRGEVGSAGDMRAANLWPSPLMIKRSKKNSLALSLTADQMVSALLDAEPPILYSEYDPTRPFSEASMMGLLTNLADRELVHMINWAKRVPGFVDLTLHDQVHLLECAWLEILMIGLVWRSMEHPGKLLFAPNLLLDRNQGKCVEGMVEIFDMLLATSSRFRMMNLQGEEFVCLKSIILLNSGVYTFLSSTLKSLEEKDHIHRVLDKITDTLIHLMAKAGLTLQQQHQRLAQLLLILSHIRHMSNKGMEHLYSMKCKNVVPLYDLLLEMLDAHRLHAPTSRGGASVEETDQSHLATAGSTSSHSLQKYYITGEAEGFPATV
Procedure: T47D breast cancer cells were subcultured in cell culture medium, and the cells in good growth condition were seeded into 6-well plate at 2 mL/well, with 2.5×10^5 cells per well. The cells were incubated overnight in a 37° C. incubator under 5% CO2. The drug was prepared into 10 mM stock solution with dimethyl sulfoxide (DMSO). Prior to use, the stock solution was diluted with DMSO in a ratio of 1:3. […] of the diluted compound was added to the cell culture wells (to ensure a DMSO concentration of 0.1% in the culture system), and each concentration was repeated twice. The plate were gently shaken to mix. Additionally, the negative control wells (containing equal amount of DMSO) and the positive control wells were set up. After 24 hours of culture, the cells were lysed with RIPA cell lysis buffer to extract proteins, and the protein concentration was measured using a BCA kit. The protein loading buffer (5×) was added, and the plate was heated at 100° C. for 5 min. Then, the sample was stored at −20° C. […] of protein collected from each well was loaded onto a polyacrylamide gel for electrophoresis. The protein is transferred from the polyacrylamide gel to a PVDF membrane, blocked with 5% skim milk at room temperature for 1 h, and incubated overnight at 4° C. with primary antibodies Anti-ERα rabbit mAb (CST, Cat #: 8644S) and Anti-GAPDH rabbit mAb (CST, Cat #: 2118L). The membrane was washed three times with TBST solution, with 10 min for each time. The secondary antibody (horseradish peroxidase-labeled goat anti-rabbit IgG) was incubated at room temperature for 2 h, and then the membrane was washed three times with TBST solution, with 10 min for each time. Finally, ECL chromogenic solution was added for color development, and an automatic chemiluminescence instrument was used to take pictures. Images were collected and analyzed.
The degradation activities of the compounds according to the present invention towards ER, as tested by western blotting, are presented in Table 2

ER [2] = biological target: T1, ER; assay: Degradation activities on ER (ELISA) in T47D breast cancer cells; details: for DC50: concentration required to degrade 50% of the target protein
Method in brief: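 T47D cells were seeded at 2.5×10^4/well, grown 3 days at 37 °C, 5% CO2, then exposed 24 h to compound at 100, 25, 6.25, 1.56, 0.39 and […] nM (final). ER protein was quantified by sandwich ELISA with HRP/TMB read at 450 nm, and DC50 and Dmax came from dose-response fits.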

[3] = tested on: MCF-7 breast cancer cells; assay: Inhibition of proliferation of MCF-7 breast cancer cells (agarose culture, CellTiter-Glo 3D); details: MCF-7 cells, 15 days of cultivation, read-out: IC50
[4] = T47D cells, 24 h, ELISA, maximum percentage of target protein degraded, read-out: Dmax

| Compound | Percentage reduction of ER (ER [1]; compound concentration 1 nM) [%] | DC50 (ER [2]; T47D cells, 24 h, ELISA) [µM] | IC50 ([3]; Homo sapiens, MCF7, 360 h) [µM] | Dmax (ER [2]; [4]) [%] | other results |
| --- | --- | --- | --- | --- | --- |
| 3-(5-(7-((1-(2,6-difluoro-4-((3,4-cis)-3-(2-fluorophenyl)-7-hydroxychroman-4-yl)phenyl)piperidin-4-yl)methyl)-2,7-diazaspiro[3.5]nonane-2-yl)-1-oxoisoinodolin-2-yl)piperidin-2,6-dione [Example 33] | 53 | < 0.01 |  |  | Dmax (ER [2]; T47D cells, 24 h, ELISA, maximum percentage of target protein degraded): B (B: 75-50%); IC50 [3]: < 0.01 µM |
| O=C1CCC(N2Cc3cc(N4CC5(CCN(CC6CCN(c7ccc([C@@H]8c9ccc(O)cc9CC[C@@H]8c8ccccc8)cc7)CC6)CC5)C4)ccc3C2=O)C(=O)N1 (stereo partly shown) [Example 4] |  |  | 0.011 to 0.05 |  | Percentage reduction of ER (ER [1]; compound concentration 10 nM): 74% |
| O=C1CCC(N2Cc3cc(N4CCC5(CCN(CC6CCN(c7ccc([C@@H]8c9ccc(O)cc9OC[C@@H]8c8ccccc8)cc7)CC6)C5)C4)ccc3C2=O)C(=O)N1 (stereo partly drawn) [Example 8, 3-(5-(7-((1-(4-((3S,4R)-7-hydroxyl-3-phenyltryptophane-4-yl)phenyl)piperidin-4-yl)methyl)-2,7-diazaspiro[4.4]nonane-2-yl)-1-oxoisoinodolin-2-yl)piperidin-2,6-dione] | 47 |  | 0.011 to 0.05 |  |  |
| O=C1CCC(N2Cc3cc(N4CCC(CN5CC6(CCN(c7ccc([C@@H]8c9ccc(O)cc9CC[C@@H]8c8ccccc8)cc7)CC6)C5)CC4)ccc3C2=O)C(=O)N1 (stereo partly shown) [Example 11] |  | < 0.01 | < 0.01 | 50 to 75 | Percentage reduction of ER (ER [1]; compound concentration 10 nM): 84% |
| O=C1CCC(N2Cc3cc(N4CC5CN(CC6CCN(c7ccc([C@@H]8c9ccc(O)cc9CC[C@@H]8c8ccccc8)cc7)CC6)CC5C4)ccc3C2=O)C(=O)N1 (stereo partly drawn) [Example 26, 3-(5-(5-((1-(4-((1R,2S)-6-hydroxyl-2-phenyl-1,2,3,4-tetrahydronaphthalen-1-yl)phenyl)piperidin-4-yl)methyl)hexahydropyrrolo[3,4-c]pyrrole-2(1H)-yl)-1-oxoisoinodolin-2-yl)piperidin-2,6-dione] | 56 | < 0.01 | < 0.01 | 50 to 75 |  |
| O=C1CCC(N2Cc3cc(N4CCC5(CC4)CN(CC4CCN(c6ccc([C@@H]7c8ccc(O)cc8CC[C@@H]7c7ccccc7)cc6)CC4)C5)ccc3C2=O)C(=O)N1 (stereo partly drawn) [Example 27, 3-(5-(2-((1-(4-((1R,2S)-6-hydroxyl-2-phenyl-1,2,3,4-tetrahydronaphthalen-1-yl)phenyl)piperidin-4-yl)methyl)-2,7-diazaspiro[3.5]nonan-7-yl)-1-oxoisoinodolin-2-yl)piperidin-2,6-dione] | 78 | > 0.1 |  |  | Dmax (ER [2]; T47D): < 50% |
| O=C1CCC(N2Cc3cc(N4CC5(CCN(CC6CCN(c7ccc([C@@H]8c9ccc(O)cc9CC[C@@H]8c8ccccc8)cc7)CC6)C5)C4)ccc3C2=O)C(=O)N1 (stereo partly drawn) [Example 31, 3-(5-(6-((1-(4-((1,2-cis)-6-hydroxyl-2-phenyl-1,2,3,4-tetrahydronaphthalen-1-yl)phenyl)piperidin-4-yl)methyl)-2,6-diazaspiro[3.4]octane-2-yl)-1-oxoisoinodolin-2-yl)piperidin-2,6-one] |  |  | 0.011 to 0.05 |  | Percentage reduction of ER (ER [1]; compound concentration 100 nM): 50% |
| O=C1CCC(N2Cc3cc(N4CC5(CCN(CC6CCN(c7ccc([C@H]8c9ccc(O)cc9OC[C@H]8c8ccccc8F)cc7)CC6)CC5)C4)ccc3C2=O)C(=O)N1 (stereo partly drawn) [Example 34, 3-(5-(7-((1-(4-((3R,4S)-3-(2-fluorophenyl)-7-hydroxychroman-4-yl)phenyl)piperidin-4-yl)methyl)-2,7-diazaspiro[3.5]nonane-2-yl)-1-oxoisoindol-2-yl)piperidin-2,6-dione] |  | > 0.1 |  | < 50 | Percentage reduction of ER (ER [1]; compound concentration 100 nM): 51% |
| O=C1CCC(N2C(=O)c3ccc(N4CCC5(CCN(CC6CCN(c7ccc([C@@H]8c9ccc(O)cc9CC[C@@H]8c8ccccc8)cc7)CC6)C5)C4)cc3C2=O)C(=O)N1 (stereo partly drawn) [Example 53, 2-(2,6-dioxopiperidin-3-yl)-5-(7-((1-(4-((1R,2S)-6-hydroxyl-2-phenyl-1,2,3,4-tetrahydronaphthalen-1-yl)phenyl)piperidin-4-yl)methyl)-2,7-diazaspiro[4.4]nonane-2-yl)isoinodolin-1,3-dione] | 39 | > 0.1 |  | < 50 |  |
| O=C1CCC(N2C(=O)c3ccc(N4CC5(CN(CC6CCN(c7ccc([C@@H]8c9ccc(O)cc9CC[C@@H]8c8ccccc8)cc7)CC6)C5)C4)cc3C2=O)C(=O)N1 (stereo partly drawn) [Example 54, 2-(2,6-dioxopiperidin-3-yl)-5-(6-((1-(4-((1R,2S)-6-hydroxyl-2-phenyl-1,2,3,4-tetrahydronaphthalen-1-yl)phenyl)piperidin-4-yl)methyl)-2,6-diazaspiro[3.3]heptan-2-yl)isoinodolin-1,3-dione] |  | > 0.1 |  | < 50 | Percentage reduction of ER (ER [1]; compound concentration 100 nM): 57% |
| O=C1CCC(N2C(=O)c3ccc(N4CC(N5CCN(c6ccc([C@@H]7c8ccc(O)cc8CC[C@@H]7c7ccccc7)cc6)CC5)C4)cc3C2=O)C(=O)N1 (stereo partly drawn) [Example 55, 2-(2,6-dioxopiperidin-3-yl)-5-(3-(4-(4-((1R,2S)-6-hydroxyl-2-phenyl-1,2,3,4-tetrahydronaphthalen-1-yl)phenyl)piperazine-1-yl)azetidin-1-yl)isoinodolin-1,3-dione] |  | > 0.1 |  | < 50 | Percentage reduction of ER (ER [1]; compound concentration 100 nM): 25% |
| O=C1CCC(N2Cc3cc(N4CC5(CN(CC6CCN(c7ccc([C@@H]8c9ccc(O)cc9OC[C@@H]8c8ccccc8)cc7)CC6)C5)C4)ccc3C2=O)C(=O)N1 (stereo partly drawn) [Example 57, 3-(5-(6-((1-(4-((3S,4R)-7-hydroxyl-3-phenyl-chroman-4-yl)phenyl)piperidin-4-yl)methyl)-2,6-diazaspiro[3.3]heptan-2-yl)-1-oxoisoinodolin-2-yl)piperidin-2,6-one] | 77 |  | < 0.01 |  |  |
| O=C1CCC(N2Cc3cc(N4CCC5(CC4)CN(CC4CCN(c6ccc([C@@H]7c8ccc(O)cc8OC[C@@H]7c7ccccc7)cc6)CC4)C5)ccc3C2=O)C(=O)N1 (stereo partly drawn) [Example 58, 3-(5-(2-((1-(4-((3S,4R)-7-hydroxyl-3-phenyl-chroman-4-yl)phenyl)piperidin-4-yl)methyl)-2,7-diazaspiro[3.5]nonan-7-yl)-1-oxoisoinodolin-2-yl)piperidin-2,6-dione] | 76 |  | < 0.01 |  |  |
| O=C1CCC(N2Cc3cc(N4CC5(CCN(CC6CCN(c7ccc([C@@H]8c9ccc(O)cc9OC[C@@H]8c8ccccc8)cc7)CC6)CC5)C4)ccc3C2=O)C(=O)N1 (stereo partly drawn) [Example 79, 3-(5-(7-((1-(4-((3S,4R)-7-hydroxyl-3-phenylchroman-4-yl)phenyl)piperidin-4-yl)methyl)-2,7-diazaspiro[3.5]nonane-2-yl)-1-oxoisoinodolin-2-yl)piperidin-2,6-dione] | 70 | < 0.01 | < 0.01 | 50 to 75 |  |
| O=C1CCC(N2Cc3cc(N4CC5CN(CC6CCN(c7ccc([C@@H]8c9ccc(O)cc9OC[C@@H]8c8ccccc8)cc7)CC6)CC5C4)ccc3C2=O)C(=O)N1 (stereo partly drawn) [Example 83, 3-(5-(5-((1-(4-((3S, 4R)-7-hydroxyl-3-phenylchroman-4-yl)phenyl)piperidin-4-yl)methyl)hexahydropyrrolo[3,4-c]pyrrole-2(1H)-yl)-1-oxoisoinodolin-2-yl)piperidin-2,6-dione] | 87 |  | < 0.01 |  |  |
